Test results reported in PubChem BioAssay (NCI).
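These data come from cells grown in 96-well plates and exposed to compound for 48 hours at five concentrations. The concentration for full growth arrest is given as TGI.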

What was measured:
Assay in all cases: NCI-60 cell line screen, 48 h
UACC-257 melanoma = tested on: UACC-257 melanoma
OVCAR-3 ovarian = tested on: OVCAR-3 ovarian
BT-549 breast = tested on: BT-549 breast
NCI-H460 lung = tested on: NCI-H460 lung
KM12 colon = tested on: KM12 colon
UACC-62 melanoma = tested on: UACC-62 melanoma
SK-MEL-2 melanoma = tested on: SK-MEL-2 melanoma
T-47D breast = tested on: T-47D breast
NCI-H522 lung = tested on: NCI-H522 lung
HCT-15 colon = tested on: HCT-15 colon
786-0 renal = tested on: 786-0 renal
PC-3 prostate = tested on: PC-3 prostate
MOLT-4 leukemia = tested on: MOLT-4 leukemia
A498 renal = tested on: A498 renal
K-562 leukemia = tested on: K-562 leukemia
TK-10 renal = tested on: TK-10 renal
SN12C renal = tested on: SN12C renal
A549 NSCLC = tested on: A549 NSCLC
MALME-3M melanoma = tested on: MALME-3M melanoma
SK-MEL-5 melanoma = tested on: SK-MEL-5 melanoma
SF-539 CNS = tested on: SF-539 CNS
NCI/ADR-RES ovarian = tested on: NCI/ADR-RES ovarian
HCC-2998 colon = tested on: HCC-2998 colon
UO-31 renal = tested on: UO-31 renal
OVCAR-5 ovarian = tested on: OVCAR-5 ovarian
COLO 205 colon = tested on: COLO 205 colon
MCF7 breast = tested on: MCF7 breast
DU-145 prostate = tested on: DU-145 prostate
SK-MEL-28 melanoma = tested on: SK-MEL-28 melanoma
OVCAR-4 ovarian = tested on: OVCAR-4 ovarian
NCI-H23 lung = tested on: NCI-H23 lung
HCT-116 colon = tested on: HCT-116 colon
MDA-MB-435 = tested on: MDA-MB-435
ACHN renal = tested on: ACHN renal
RPMI-8226 leukemia = tested on: RPMI-8226 leukemia
SF-295 CNS = tested on: SF-295 CNS
MDA-N = tested on: MDA-N
CAKI-1 renal = tested on: CAKI-1 renal
MDA-MB-231 breast = tested on: MDA-MB-231 breast
M14 melanoma = tested on: M14 melanoma
SNB-75 CNS = tested on: SNB-75 CNS
NCI-H226 lung = tested on: NCI-H226 lung
HOP-62 NSCLC = tested on: HOP-62 NSCLC
HOP-92 NSCLC = tested on: HOP-92 NSCLC
SK-OV-3 ovarian = tested on: SK-OV-3 ovarian
EKVX NSCLC = tested on: EKVX NSCLC
SF-268 CNS = tested on: SF-268 CNS
U251 CNS = tested on: U251 CNS
SNB-19 CNS = tested on: SNB-19 CNS
RXF 393 renal = tested on: RXF 393 renal
SW-620 colon = tested on: SW-620 colon
LOX IMVI melanoma = tested on: LOX IMVI melanoma
OVCAR-8 ovarian = tested on: OVCAR-8 ovarian
CCRF-CEM leukemia = tested on: CCRF-CEM leukemia
IGROV1 ovarian = tested on: IGROV1 ovarian

COC(=O)C1=C(CCCCO[Si](C)(C)C(C)(C)C)NC(=O)N2[C@H](CCOCc3ccccc3)CC[C@@H]12
TGI (UACC-257 melanoma): > 100 µM
TGI (OVCAR-3 ovarian): > 100 µM
TGI (BT-549 breast): > 100 µM
TGI (NCI-H460 lung): > 100 µM
TGI (KM12 colon): > 100 µM
TGI (UACC-62 melanoma): > 100 µM
TGI (SK-MEL-2 melanoma): > 100 µM
TGI (T-47D breast): > 100 µM
TGI (NCI-H522 lung): > 100 µM
TGI (HCT-15 colon): > 100 µM
TGI (786-0 renal): > 100 µM
TGI (PC-3 prostate): > 100 µM
TGI (MOLT-4 leukemia): > 100 µM
TGI (A498 renal): > 100 µM
TGI (K-562 leukemia): > 100 µM
TGI (TK-10 renal): > 100 µM
TGI (SN12C renal): > 100 µM
TGI (A549 NSCLC): > 100 µM
TGI (MALME-3M melanoma): > 100 µM
TGI (SK-MEL-5 melanoma): 28.3 µM
TGI (SF-539 CNS): > 100 µM
TGI (NCI/ADR-RES ovarian): > 100 µM
TGI (HCC-2998 colon): > 100 µM
TGI (UO-31 renal): > 100 µM
TGI (OVCAR-5 ovarian): > 100 µM
TGI (COLO 205 colon): > 100 µM
TGI (MCF7 breast): > 100 µM
TGI (DU-145 prostate): > 100 µM
TGI (SK-MEL-28 melanoma): > 100 µM
TGI (OVCAR-4 ovarian): > 100 µM
TGI (NCI-H23 lung): > 100 µM
TGI (HCT-116 colon): > 100 µM
TGI (MDA-MB-435): > 100 µM
TGI (ACHN renal): > 100 µM
TGI (RPMI-8226 leukemia): > 100 µM
TGI (SF-295 CNS): > 100 µM
TGI (MDA-N): > 100 µM
TGI (CAKI-1 renal): > 100 µM
TGI (MDA-MB-231 breast): > 100 µM
TGI (M14 melanoma): > 100 µM
TGI (SNB-75 CNS): > 100 µM
TGI (NCI-H226 lung): > 100 µM
TGI (HOP-62 NSCLC): > 100 µM
TGI (HOP-92 NSCLC): > 100 µM
TGI (SK-OV-3 ovarian): > 100 µM
TGI (EKVX NSCLC): > 100 µM
TGI (SF-268 CNS): > 100 µM
TGI (U251 CNS): > 100 µM
TGI (SNB-19 CNS): > 100 µM

COP(=O)(OC)OCN(C)CC/C=C(\C)CC/C=C(\C)CCC=C(C)C
TGI (UACC-257 melanoma): 19.2 µM
TGI (OVCAR-3 ovarian): 29.9 µM
TGI (BT-549 breast): 30 µM
TGI (NCI-H460 lung): 23.9 µM
TGI (KM12 colon): 30 µM
TGI (SK-MEL-2 melanoma): 28.2 µM
TGI (T-47D breast): 43.9 µM
TGI (NCI-H522 lung): 26.1 µM
TGI (RXF 393 renal): 49.1 µM
TGI (HCT-15 colon): 30.3 µM
TGI (SW-620 colon): 30.4 µM
TGI (786-0 renal): 31.3 µM
TGI (PC-3 prostate): 21.2 µM
TGI (MOLT-4 leukemia): 28.9 µM
TGI (A498 renal): > 100 µM
TGI (K-562 leukemia): 20.6 µM
TGI (TK-10 renal): 21.9 µM
TGI (SN12C renal): 32.1 µM
TGI (A549 NSCLC): 40.9 µM
TGI (MALME-3M melanoma): 28.2 µM
TGI (SK-MEL-5 melanoma): 25.3 µM
TGI (SF-539 CNS): 30.3 µM
TGI (LOX IMVI melanoma): 29.3 µM
TGI (NCI/ADR-RES ovarian): 30.5 µM
TGI (HCC-2998 colon): 23.8 µM
TGI (UO-31 renal): 28.3 µM
TGI (OVCAR-5 ovarian): 39.1 µM
TGI (COLO 205 colon): 34 µM
TGI (MCF7 breast): 28.5 µM
TGI (SK-MEL-28 melanoma): 32.6 µM
TGI (OVCAR-4 ovarian): > 100 µM
TGI (NCI-H23 lung): 34.7 µM
TGI (HCT-116 colon): 25.9 µM
TGI (OVCAR-8 ovarian): 29.5 µM
TGI (MDA-MB-435): 40.2 µM
TGI (ACHN renal): 64.2 µM
TGI (RPMI-8226 leukemia): 28.3 µM
TGI (SF-295 CNS): 32.5 µM
TGI (MDA-N): 29.3 µM
TGI (CAKI-1 renal): 33.8 µM
TGI (MDA-MB-231 breast): 56.3 µM
TGI (M14 melanoma): 28 µM
TGI (SNB-75 CNS): 28 µM
TGI (NCI-H226 lung): 34.6 µM
TGI (HOP-62 NSCLC): 29.7 µM
TGI (CCRF-CEM leukemia): 51.9 µM
TGI (HOP-92 NSCLC): 34.8 µM
TGI (SK-OV-3 ovarian): > 100 µM
TGI (EKVX NSCLC): 63.3 µM
TGI (IGROV1 ovarian): 25.8 µM
TGI (SF-268 CNS): 30.8 µM
TGI (U251 CNS): 37.6 µM
TGI (SNB-19 CNS): 25.6 µM
